Series [1] in a line: Plasma and brain concentration 30 min after IP injection. In kind it is in vivo, mouse. The settings on record: male, C57BL6/J, mouse, mice, ip dosing, 30 minutes; for Kp at 30 min: brain/plasma, read-out: B/P. How it is done: All studies were performed on 6-week old male C57BL6/J mice that were housed in the Columbia University Medical Center facility in a 12h light/dark cycle with access to food and water ad libitum. All animal procedures were approved by the Columbia University IACUC. […] Animals were weighed and injected once intraperitoneally (IP) at the indicated dose (10 or 20 mg/kg). After 30 min, animals were deeply anesthetized with 2.5% Avertin. Whole blood was collected by cardiac puncture in tubes containing 0.5M EDTA as an anticoagulant, and centrifuged for 10 min at 845 rcf at 4° to isolate plasma. Following cardiac puncture, animals were decapitated and brains were dissected and weighed. Brain samples were homogenized with a glass dounce homogenizer in 5 volumes of ddH2O. Brain and plasma samples were snap frozen in liquid nitrogen and stored at −80° C. before further processing.
The plasma samples were transferred to Eppendorf tubes (50 μL per sample) and diluted with acetonitrile (200 μL). The samples were sonicated for 1 minute followed by centrifugation at 16,000 rpm for 10 minutes. The supernatant was transferred to another Eppendorf tube and the solvent evaporated overnight. The samples were reconstituted in a mixture of 40 μL acetonitrile and 10 μL water transferred to a sample vial with insert, and analyzed by LC-MS.
The homogenized brain samples (250 μL) were transferred to Eppendorf tubes and diluted with acetonitrile (750 μL). The samples were sonicated for 1 minute followed by centrifugation at 16,000 rpm for 10 minutes. The supernatant (900 μL) was transferred to another Eppendorf tube and the solvent evaporated overnight. The samples were reconstituted in a mixture of 80 μL acetonitrile and 20 μL water, transferred to a sample vial with insert, and analyzed by LC-MS.
LC-MS analysis was performed on a platform comprising a Thermo Scientific Dionex Ultimate 3000 and a Bruker amaZon SL equipped with an electrospray ionization source controlled by Bruker Hystar 3.2. The compound concentration in each plasma sample was determined using a calibration curve. Chromatographic separation was performed by injecting 10 μL of the sample onto an Agilent Eclipse Plus C18 column (2.1×50 mm, 3.5 μm) maintained at 20° C. The flow rate was maintained at 400 μL/min. The initial flow conditions were 60% solvent A (water containing 0.1% acetic acid) and 40% solvent B (methanol containing 0.1% acetic acid). Solvent B was raised to 60% over 0.25 minutes and to 70% by 6.75 minutes.

A further series deals with phospho-cjun. In words: Phospho-cjun in olfactory bulbs after treatment in vivo (western blot). The settings on record: 10 mg/kg oral gavage. On the set-up: species or system mouse. How it is done: Compounds at 10 mg/kg were delivered intraperitoneally (IP), orally, or sub-cutaneously (SC). Animals were sacrificed 1 h after treatment. Their olfactory bulbs were dissected and lysed for western blot analysis. Phospho-cjun expression was normalized to the housekeeping protein GAPDH.
We therefore selected phospho-cjun as a marker of target engagement for further in vivo studies. C-jun is highly expressed throughout the murine central nervous system, especially in the olfactory bulbs. […] Animals were then sacrificed after 1 h, and their olfactory bulbs were sub-dissected and lysed for further western blot analysis. Samples were probed with an antibody specific to phosphorylated c-jun (at serine 63; cell signaling) and normalized to the housekeeping gene GAPDH.
In general terms: In western blotting, separated proteins are transferred to a membrane and probed.

The test system of series [2] is human ES motor neurons carrying the ALS-causing SOD1^A4V mutation. In words: cells. The class given is cell-based. The conditions noted are these: Homo sapiens, Neuron, 72 h, CPA 33 μM, 72 h. On the procedure: Next, survival assays were performed with all the analogs at once to generate a low-variability dataset. All compounds were evaluated at concentrations ranging from 0.1-3.0 μM (five-point dilution) in three technical replicates and two biological replicates.

Another series deals with NUAK1 (Homo sapiens, UniProt O60285). The settings on record: cited from earlier work.
NUAK1, sequence (O60285 whole entry, species assumed): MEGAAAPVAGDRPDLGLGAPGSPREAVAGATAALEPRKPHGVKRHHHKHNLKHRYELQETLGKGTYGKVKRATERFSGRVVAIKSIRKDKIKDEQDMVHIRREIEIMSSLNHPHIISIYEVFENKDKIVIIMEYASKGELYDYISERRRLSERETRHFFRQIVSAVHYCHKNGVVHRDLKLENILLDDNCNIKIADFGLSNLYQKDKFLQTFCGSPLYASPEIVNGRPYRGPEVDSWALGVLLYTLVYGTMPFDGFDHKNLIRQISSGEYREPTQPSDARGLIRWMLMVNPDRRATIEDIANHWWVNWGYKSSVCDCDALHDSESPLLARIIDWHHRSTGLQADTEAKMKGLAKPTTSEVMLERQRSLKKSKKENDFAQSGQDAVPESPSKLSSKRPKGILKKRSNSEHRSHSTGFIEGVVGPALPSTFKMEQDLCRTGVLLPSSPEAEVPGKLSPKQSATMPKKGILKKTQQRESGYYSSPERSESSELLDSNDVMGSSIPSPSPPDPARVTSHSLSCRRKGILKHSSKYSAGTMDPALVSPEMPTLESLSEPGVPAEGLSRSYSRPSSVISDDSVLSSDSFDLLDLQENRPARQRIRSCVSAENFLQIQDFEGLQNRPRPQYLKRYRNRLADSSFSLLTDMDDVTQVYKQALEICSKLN
Series [3] has as its system human stem cell-derived motor neurons derived from a healthy patient.
The test system of another series is human ES motor neurons. In words: Rescue of CPA toxicity by kinase inhibitors in dilution series (FIG. 3). The conditions noted are these: dilution series, FIG. 3.
For series [4], the system named is human stem cell-derived motor neurons derived from a healthy patient. In words: CPA survival assay, wild-type human stem cell-derived motor neurons. The conditions noted are these: 8-point dilution series.
For series [5], the system named is HB9::GFP-SOD1^+/A4V human motor neurons. In words: Rescue of CPA toxicity in human ESC-derived motor neurons, SOD1^+/A4V. The class given is cell-based. The settings on record: SOD1^A4V motor neurons, 33 μM CPA. From the text:
(§1) One advantage of the stem cell-derived motor neuron survival assay is that it can be easily extended to human motor neurons. To adapt the assay to human cells, we generated a new isogenic pair of ESC lines derived from a human ESC line expressing GFP under the control of the Hb9 motor neuron promoter (HUES3 HB9::GFP, (Di Giorgio et al. 2008)). […] . The pair of cell lines was differentiated into motor neurons in parallel using previously published protocols (Amoroso et al. 2013; […] .
(§2) Differentiation of human isogenic HUES3 ESC HB9::GFP reporter lines into motor neurons was performed as previously described (Maury et al. 2015). Cells were dissociated on day 16 of differentiation, FACS-sorted and plated on poly-ornithine- and laminin-coated surfaces as above. Serum-free human motor neuron plating media was supplemented with the antimitotic UFdU and the neurotrophic factors GDNF, BDNF, CNTF, and IGF1 (all at 10 ng/mL) as described (Johnson-Kerner et al. 2015).

In series [6] the test system is HB9::GFP-SOD1^+/+ human motor neurons. In words: Rescue of CPA toxicity in human ESC-derived motor neurons, SOD1^+/+. The class given is cell-based. The conditions noted are these: WT motor neurons, 33 μM CPA.
Source text: as §1, §2

The subject of another series is hSOD1^G93A mice. In words: TUDCA on neuromuscular junction denervation of tibialis anterior. In kind it is in vivo, mouse. The conditions noted are these: 0.5 mg/g subcutaneously every three days, P30 to P50. The source says:
To test the ability of TUDCA to preserve motor axons in ALS models in vivo, we designed a small-scale study in which we evaluated the denervation of the fast fatigable hind limb muscle tibialis anterior (TA) (FIG. 20D). […]. During this period, the TA muscles display 25-40% denervation before becoming substantially atrophied at later time points. […]. At the end of the experiment, we counted total NMJs by staining for acetylcholine receptors on the TA muscle with Alexa Fluor 488-conjugated α-bungarotoxin, and assessed their innervation by staining for motor axons with antibodies against vesicular acetylcholine […] (VAChT) (FIG. 20F). […].
(2) hSOD1^WT mice receiving 0.5 mg/g TUDCA in 0.01 M PBS subcutaneously to evaluate the mutation-specific effects of NMJ denervation and of the drug; […]. […] Because a lack of co-localization indicated muscle denervation, % NMJ innervation was determined by dividing the total number of areas of overlap between VAChT and BTX signals (total number innervated endplates) by the number of areas containing BTX signal (total number of endplates). One TA was assessed for each animal (n=4-6), with every third section throughout the whole muscle stained and counted such that a minimum of 1000 NMJs were evaluated per animal. Images were acquired using a Nikon Eclipse TE-2000-E fluorescence microscope with a 4× or 10× objective. […]

Series [7] can be described thus: Solubility of kenpaullone (observation). The class given is physicochemical.
The next series concerns the target MLK3 (Homo sapiens, UniProt Q16584). The conditions noted are these: 0.5 μM; Anastassiadis et al. 2011; cited from earlier work.

Several values for one entry are separate records, joined by “and”; a condition that tells them apart may be missing. Equal entries are not always repeated. Where two headings read alike, the source gives them in different places.

A word on the EC50: it is the concentration at which the effect is half-maximal. By IC50 is commonly meant the midpoint of a concentration-inhibition curve.

MLK3, sequence (Q16584 whole entry, species assumed): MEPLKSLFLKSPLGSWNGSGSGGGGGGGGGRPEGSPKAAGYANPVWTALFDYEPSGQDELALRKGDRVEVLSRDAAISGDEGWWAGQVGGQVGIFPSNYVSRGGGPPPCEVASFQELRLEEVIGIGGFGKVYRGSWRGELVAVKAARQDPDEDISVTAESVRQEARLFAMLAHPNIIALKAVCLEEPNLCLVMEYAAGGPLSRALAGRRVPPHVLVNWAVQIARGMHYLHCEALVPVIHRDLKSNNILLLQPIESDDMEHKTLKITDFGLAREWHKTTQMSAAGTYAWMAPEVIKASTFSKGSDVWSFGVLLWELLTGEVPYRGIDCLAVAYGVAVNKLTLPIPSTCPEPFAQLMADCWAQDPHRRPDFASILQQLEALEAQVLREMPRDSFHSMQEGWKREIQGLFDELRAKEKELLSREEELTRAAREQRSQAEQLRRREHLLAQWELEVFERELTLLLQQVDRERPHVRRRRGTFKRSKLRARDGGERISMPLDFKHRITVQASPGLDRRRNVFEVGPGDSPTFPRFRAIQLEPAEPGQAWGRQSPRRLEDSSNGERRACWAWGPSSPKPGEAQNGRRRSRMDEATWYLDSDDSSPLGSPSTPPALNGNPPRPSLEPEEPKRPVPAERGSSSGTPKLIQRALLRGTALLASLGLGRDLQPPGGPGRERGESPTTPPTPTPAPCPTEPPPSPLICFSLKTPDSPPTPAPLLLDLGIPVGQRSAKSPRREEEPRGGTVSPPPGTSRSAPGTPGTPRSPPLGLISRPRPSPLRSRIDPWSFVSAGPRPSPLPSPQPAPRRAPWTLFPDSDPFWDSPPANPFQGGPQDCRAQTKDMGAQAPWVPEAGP

For the compound `OCCN1CCN(Cc2ccc(-c3cnc4[nH]cc(-c5cccc(F)c5)c4c3)cc2)CC1` [Compound 12h, 2-(4-(4-(3-(3-Fluorophenyl)-1H-pyrrolo[2,3-b]pyridin-5-yl)benzyl)piperazin-1-yl)ethan-1-ol], the Kp at 30 min worked out at 2 in [1] (10 mg/kg) and 3.3 in series [1] (20 mg/kg). In addition, the concentration at 30 min in series [1] (10 mg/kg, read-out: brain) was < 500 ng/g and < 1.2 µM; in [1] (10 mg/kg, read-out: plasma) it was < 250 ng/mL and < 580 nM; in [1] (20 mg/kg, read-out: brain), 1670 ng/g and 3.88 µM; in series [1] (20 mg/kg, read-out: plasma), 505 ng/mL and 1.17 µM. Further, in the series with phospho-cjun, the “oral bioavailability (from reduction of cjun phosphorylation after oral gavage)” value was “orally bioavailable”. Also, in [2] (read-out: EC50), the EC50 turned out to be 100 nM. Further, in [2] (read-out: Emax (MN survival % untreated)), the Emax was found to be 117%.

Turning to `Cc1nc(Nc2cnn(C3CCNCC3)c2)nc2c1N(C)C(=O)c1cc3ccccc3cc1N2C` [HTH 01-015], the IC50 on NUAK1 is 100 nM. Further, the “concentration above which toxic to motor neurons in the absence of CPA” value in [3] was “above 2 μM”. The “rescue of CPA toxicity” value is reported as “failed to rescue CPA toxicity” in the series on human ES motor neurons and “unable to rescue CPA toxicity” in series [4].

`C[C@H](CCC(=O)NCCS(=O)(=O)O)[C@H]1CC[C@H]2[C@@H]3[C@@H](O)C[C@@H]4C[C@H](O)CC[C@]4(C)[C@H]3CC[C@]12C` [TUDCA, tauroursodeoxycholic acid]: the “rescue of CPA-induced cell death” value turned out to be 9% in series [5] and 34% in series [6]. Moreover, in the series with hSOD1^G93A mice, the “NMJ innervation vs untreated animals” value is “moderate, but statistically significant increase in NMJ innervation”.

Regarding `O=C1Cc2c([nH]c3ccc(Br)cc23)-c2ccccc2N1` [Kenpaullone], the “rescue of CPA-induced cell death” value is reported as 31% in series [5] and 42% in series [6]. Also, the “solubility at the concentrations effective in in vitro CPA assays” value in series [7] is recorded as “insoluble”. The MLK3 activity remaining on MLK3 is reported as 49.3%.

(Values after patent US12227500B2, “Substituted pyrrolo[2,3-b]pyridines for suppressing toxic endoplasmic reticulum stress” (THE TRUSTEES OF COLUMBIA UNIVERSITY IN THE CITY OF NEW YORK, priority 2018, dated 2025).)
